Here are results for two compounds from PubChem BioAssay AID509.

The experiment concerns the target Peroxisomal multifunctional enzyme type 2 (Homo sapiens) (UniProt P51659). Put plainly: HSD17B4 binders by thermal shift, biophysical, DSF, SYPRO orange, recombinant protein (AID 509). The following applies: protein 2 µM, buffer 10 mM HEPES, pH 7.5, NaCl 150 mM, stronger effect = higher value.

Peroxisomal multifunctional enzyme type 2 (Homo sapiens), sequence (P51659 whole entry, looked up): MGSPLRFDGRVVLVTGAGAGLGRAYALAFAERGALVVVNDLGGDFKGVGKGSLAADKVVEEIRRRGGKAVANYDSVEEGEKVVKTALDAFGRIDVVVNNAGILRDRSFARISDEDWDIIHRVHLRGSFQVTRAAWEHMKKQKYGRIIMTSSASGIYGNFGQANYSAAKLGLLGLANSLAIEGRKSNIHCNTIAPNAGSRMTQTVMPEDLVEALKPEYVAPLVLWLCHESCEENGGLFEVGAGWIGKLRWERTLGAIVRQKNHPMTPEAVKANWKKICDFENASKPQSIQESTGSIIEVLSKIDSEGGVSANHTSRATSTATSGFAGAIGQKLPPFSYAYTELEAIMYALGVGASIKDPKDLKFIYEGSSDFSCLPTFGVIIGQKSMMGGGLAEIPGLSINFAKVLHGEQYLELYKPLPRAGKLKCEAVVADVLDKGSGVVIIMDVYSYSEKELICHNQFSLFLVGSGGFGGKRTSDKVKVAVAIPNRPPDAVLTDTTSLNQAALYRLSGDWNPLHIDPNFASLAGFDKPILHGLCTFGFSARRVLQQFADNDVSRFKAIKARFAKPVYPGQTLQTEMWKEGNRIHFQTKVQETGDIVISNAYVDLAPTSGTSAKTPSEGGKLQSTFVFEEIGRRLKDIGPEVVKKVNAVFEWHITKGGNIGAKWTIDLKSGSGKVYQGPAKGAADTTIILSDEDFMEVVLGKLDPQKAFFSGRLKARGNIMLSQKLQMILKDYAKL

In the case of `Oc1cc(O)c2cc(O)c(-c3ccc(O)c(O)c3)[o+]c2c1`, the Tm shift (at 10 µM) was 2.1 Celsius. In the case of `O=C1C2(Cl)C3(Cl)C4(Cl)C(Cl)(Cl)C5(Cl)C3(Cl)C1(Cl)C5(Cl)C24Cl` (configuration not stated), the Tm shift (at 100 µM) amounted to 3 Celsius.
